Measured values as given in patent US20240166687A1, “REGULATORY T CELL-INDUCING PEPTIDE AND COMPOSITION INCLUDING SAME FOR PREVENTING OR TREATING AUTOIMMUNE DISEASE” (IUCF-HYU (INDUSTRY-UNIVERSITY COOPERATION FOUNDATION …, priority 2021, published 2024).
“Also recorded” adds a separate entry of the source.

Legend:
[1] = system: multiple sclerosis animal model; test: Analysis of efficiency in multiple sclerosis (MS) animal model (MOG35-55/CFA + PTX); type: in vivo, C57BL/6 mice; settings: for clinical symptoms (clinical score): 100 μg (5 mg/kg) intraperitoneally once a day from day 7 after PTX; for clinical symptoms (clinical score) / number of Treg cells (spinal cord) / number of infiltrated lymphocytes in the spinal cord: comparator as named in the value
Experimental: 8-week-old female C57BL/6 mice were purchased from Orient Bio (Daejeon, Korea). All animal experiments were conducted in compliance with the animal experiment operation regulations of the Institutional Animal Care and Use Committee of Hanyang University. The mice were acclimatized for 2 weeks before the experiment. The mice were raised in a breeding room maintained at temperature 22±2° C. and 40-60% humidity with free access to feed. The light and dark cycles were adjusted at 12-hour intervals. Multiple sclerosis was induced by subcutaneous immunization using a MOG35-55/CFA emulsion PTX kit (Hooke Labs, Lawrence, MA, USA) according to the manufacturer's protocol. The mice were anesthetized with isoflurane and MOG35-55/CFA was subcutaneously injected bilaterally, followed by intraperitoneal injection of PTX (pertussis toxin) 2 hours and 24 hours later. The mice were randomly assigned to different groups after MOG immunization. Because paralysis due to immune response begins on day 7 after the injection of PTX, 100 μg (5 mg/kg) of the samples according to the present disclosure were intraperitoneally injected to the groups once a day from day 7. Each group was monitored every day after inducing multiple sclerosis and clinical symptoms were recorded. The clinical symptoms were evaluated based on the scoring system described in Table 2. The higher clinical scores indicate severer symptoms. The mice were euthanized at the end of the experiments and lymphocytes were isolated from the spinal cords. The isolated spinal cords were treated at 37° C. with 1 mg/mL of DNase 1 (10104159001; Sigma-Aldrich) and 1 mg/mL of collagenase D (11088866001; Sigma-Aldrich) and incubated at 80 rpm on a shaker for 40 minutes. After the enzyme treatment, 500 mM EDTA was added and lymphocytes were isolated by Percoll (GE Healthcare, Little Chalfont, UK) density-gradient centrifugation. The isolated infiltrated lymphocytes were restimulated with a cell stimulation cocktail (plus protein transport inhibitors) (ThermoFisher) at 37° C. for 4 hours and stained with anti-mouse CD4. The cells were fixed, permeabilized using a Foxp3/transcription factor staining buffer set (eBioscience) and stained with anti-mouse IFN-γ, anti-mouse IL-17 or anti-mouse Foxp3. The cells were analyzed using a FACS Canto flow cytometer and the FlowJo software version 10.7.1. For histological analysis, paraffin blocks of the spinal cord tissues were deparaffinized and treated with luxol fast blue. For combination staining, hematoxylin and eosin were used (Dako). The cells infiltrated in the white matter region of the spinal cord tissues were counted using the Image J software version 2.0.0. The increased number of Th1 and Th17 immune cells in the spinal cord means more severe multiple sclerosis, and the increased number of Treg cells means that the function of preventing or treating autoimmune disease such as multiple sclerosis is improved as the tolerance to self-antigens is maintained and the excessive response by the immune system is prevented.

[2] = system: Th17 cells differentiated from splenocytes isolated from mouse; test: Analysis of effect under Th17 differentiation conditions (flow cytometry of IL-17A and Foxp3); type: cell-based; settings: sample 2 μM; for effect of suppressing immune response (decrease of IL-17 and increase of Foxp3): flow cytometry 4 days later, comparator as named in the value (Th17/PBS control, K1, AP-K2)
Description: Th17 cells are a subset of CD4 T cells. The Th17 cells are known to secrete a cytokine known as IL-17 and cause inflammation. This is the major cause of autoimmune disease. And, Treg cells (regulatory T cells) are known to suppress and regulate inflammation by expressing the transcription factor called Foxp3. Accordingly, since it is thought that the effect of preventing and treating autoimmune disease may be achieved by regulating inflammation by inhibiting Th17 cells (IL-17) and increasing Treg (Foxp3) cells, the effect of the peptides of the present disclosure was investigated.
Undifferentiated CD4 T cells (naive CD4 T cells) were isolated from splenocytes of 6- to 8-week-old C57BL/6 mice using a mouse undifferentiated CD4+ T cell (naive CD4 T cell) isolation kit (Miltenyi Biotec, Auburn, CA, USA) according to the manufacturer's protocols. For RNAseq, the undifferentiated CD4 T cells (naive CD4 T cells) from the Foxp3-GFP mice were purified, differentiated into Th17 cells and sorted into Foxp3^+ and Foxp3^− populations using a cell sorter (FACS Aria cell sorter BD Biosciences, Franklin Lakes, NJ, USA). The purified undifferentiated CD4 T cells (naive CD4 T cells) were activated with plate-bound anti-CD3 (2 or 5 μg/mL, 553057; BD Pharmingen, La Jolla, CA) and anti-CD28 (2 or 5 μg/mL, 553294; BD Pharmingen, La Jolla, CA) antibodies and differentiated by treating with the following cytokine cocktails in a 96-well plate for 3 or 4 days: Th0; recombinant human TGF-β(R&D Systems) 0.25 ng/mL. Th1; anti-IL-4 (11B11; 16-7041-85; eBioscience) 5 μg/mL, IL-2 (212-12; Peprotech, Rocky Hill, NJ) 50 U/mL, recombinant murine IL-12 (212-12; Peprotech) 2 ng/mL, recombinant human TGF-β (R&D Systems) for Th1 0.25 ng/mL. Th17; anti-IFN-γ (XMG1.2; 16-7311-85; eBioscience) 5 μg/mL, anti-IL-4 (11B11; 16-7041-85; eBioscience) 5 μg/mL, recombinant murine TGF-β (7666-MB, R&D Systems, Minneapolis, MN) 2 ng/mL, IL-6 (216-16; Peprotech) 30 ng/mL, IL-23 (1887-ML-101; R&D Systems) 20 ng/mL, IL-1β (401-ML-010; R&D Systems) 20 ng/mL, and IL-2 (Peprotech) 50 U/mL. Treg; IL-2 (Peprotech) 50 U/mL and TGF-β (R&D Systems) 0.5 ng/mL.
The cells were cotreated with the cytokine cocktails and the samples (2 μM). 4 days later, they were analyzed by flow cytometry using IL-17 and Foxp3 fluorescent antibodies. In some experiments, 5 μM PKC-η pseudosubstrate inhibitor (sc-3096; Santa Cruz) or 5 μM ERK inhibitor (UO126, 662005; Sigma) were also added.
For flow cytometric analysis of living cells only, dead cells were excluded using the Zombie Aqua™ fixable viability kit (Biolegend) before staining with antibodies at room temperature for 10 minutes. After washing, surface proteins of the differentiated Th1, Th17 and Treg cells were stained with monoclonal antibodies at 4° C. for 15 minutes. To determine intracellular cytokine levels, the cells were restimulated with a cell stimulation cocktail (plus protein transport inhibitors) (ThermoFisher) at 37° C. for 4 hours and then stained with surface marker antibodies. The cells were then fixed, permeabilized using a Foxp3/transcription factor staining buffer set (eBioscience) and stained with anti-mouse IFN-γ, anti-mouse IL-17 and anti-mouse Foxp3. The cells were analyzed using a FACS Canto II flow cytometer and the FlowJo software version 10.7.

[3] = 100 μg intraperitoneally once a day from day 7

## RRRWCKRRRGGKMLKKRSKMLKKRS (AP-K2)
[1]
  clinical symptoms (clinical score): significantly improved results for clinical symptoms as compared to the PBS (control group); also recorded: significantly improved result for clinical symptoms as compared to the PBS group
[1]; [3]
  number of regulatory T cells (Treg) compared to dNP2-ctCTLA-4: an increase comparable to that of dNP2-ctCTLA-4
  number of Treg cells (spinal cord): significantly number of regulatory T cells (Treg) as compared to the PBS (control group)
  number of infiltrated lymphocytes in the spinal cord: significantly smaller number of infiltrated lymphocytes in the spinal cord as compared to the PBS (control group), dNP2 and AP groups; also recorded: significantly smaller number of infiltrated lymphocytes in the spinal cord than the PBS (control group)
[1]; 100 μg intraperitoneally once a day from day 7 to day 13, groups K2, AP-K2, Myr-K2, Myr-K3
  number of infiltrated lymphocytes in the spinal cord, ranking among the groups: most superior effects
[1]; 100 μg intraperitoneally once a day from day 7 to day 13, spinal cord lymphocytes
  expression of IL-17 T cells, IFN-γ T cells and Foxp3 T cells compared to PBS: inhibited expression of II-17 T cells and IFN-γ T cells and increase of Foxp3 T cells as compared to the PBS (control group)
[2]; 4 days
  effect of inhibiting the IL-17 cytokine compared to the dNP2-ctCTLA-4 group: remarkably superior effect of inhibiting the IL-17 cytokine as compared to the dNP2-ctCTLA-4 group
[2]; 4 days, CD4+IL-17A+ T cells
  reduction of IL-17 as compared to the control group: reduced IL-17 to half or less
[2]; 4 days, CD4+foxp3+ T cells
  increase of Foxp3 as compared to the control group: ≥ 5 times
[2]
  effect of suppressing immune response (decrease of IL-17 and increase of Foxp3): significantly better effect of suppressing immune response than the PBS (control group)

## RRRWCKRRRGGKMLKKRSKMLKKRSKMLKKRS (AP-K3)
[1]
  clinical symptoms (clinical score): significantly improved results for clinical symptoms as compared to the PBS (control group)
[1]; [3]
  number of Treg cells (spinal cord): significantly number of regulatory T cells (Treg) as compared to the PBS (control group)
  number of infiltrated lymphocytes in the spinal cord: significantly smaller number of infiltrated lymphocytes in the spinal cord as compared to the PBS (control group), dNP2 and AP groups
[2]; 4 days
  effect of inhibiting the IL-17 cytokine compared to the dNP2-ctCTLA-4 group: remarkably superior effect of inhibiting the IL-17 cytokine as compared to the dNP2-ctCTLA-4 group
[2]
  effect of suppressing immune response (decrease of IL-17 and increase of Foxp3): significantly better effect of suppressing immune response than the PBS (control group)

B1: KIKKVKKKGRKGSKIKKVKKKGRKGGAMLAAASPLTTGVYVKMPPTEPECEKQFQPYFIPIN (peptide)
chain: KIKKVKKKGRKGSKIKKVKKKGRKGGAMLAAASPLTTGVYVKMPPTEPECEKQFQPYFIPIN
notes: dNP2-ctCTLA-4 variant, K motif residues replaced with alanine
[1]
  clinical symptoms (clinical score): significantly lower clinical symptoms as compared to the PBS group
[1]; [3]
  number of Treg cells (spinal cord): smallest number of Treg cells
  number of infiltrated lymphocytes in the spinal cord: significantly larger number of infiltrated lymphocytes in the spinal cord as compared to the PBS group
[1]; 100 μg intraperitoneally once a day from day 7 to day 14, luxol fast blue, H&E
  function of inhibiting myelin damage (histological analysis of the spinal cord): the function of inhibiting myelin damage was lost
[2]
  effect of suppressing immune response (decrease of IL-17 and increase of Foxp3): the function of the decrease of IL-17 and the increase of Foxp3 was lost
